Target: T1, CDK2/Cyclin E complex (Homo sapiens, UniProt P24941)
T1 construct: purchased Eurofins 14-475
Test: CDK2/Cyclin E fluorescence-based microfluidic mobility shift assay (CDK2 Biochemical Caliper Assay)
Conditions: read-out: Biochemical CDK2/CyclinE Caliper IC50
Description: Compounds of the present disclosure were tested in a CDK2/Cyclin E fluorescence-based microfluidic mobility shift assay (PerkinElmer).
The active wild type CDK2/Cyclin E complex was purchased from Eurofins (14-475). Compound stocks were prepared in DMSO and were serially diluted into 11 concentrations by 3-fold dilution. […] Compounds were incubated in the presence of CDK2/Cyclin E complex and ATP for 30 minutes at room temperature. Catalytic reaction was initiated with the addition of 5 uL of a 4× peptide solution containing 6 uM fluorescently label substrate peptide, FL Peptide 18 (aa sequence 5-FAM-QSPKKG, PerkinElmer, 760362) in 1× reaction buffer.
The final reaction components were 0.1 nM CDK2/Cyclin E, 2000 uM ATP and 1.5 uM FL Peptide 18 and 1% DMSO. Reactions were incubated RT for 20 hr and terminated with 75 uL of a stopping solution containing 0.5 M EDTA. Samples were analyzed using a LabChip EZ reader (PerkinElmer).

Row | Compound | IC50
1 | Cc1cc(CC(=O)Nc2cc([C@H]3CC[C@@H](Cc4cn[nH]c4C(C)C)C3)[nH]n2)on1 (single isomer, unassigned) [Example 409] | 100 to 250 nM
2 | COCc1cc(C(=O)Nc2cc([C@H]3CC[C@@H](Oc4nnccc4C(C)C)C3)[nH]n2)n(C)n1 (single isomer, unassigned) [Example 410] | ≤ 100 nM
3 | COCc1cc(C(=O)Nc2cc([C@@H]3CC[C@H](Oc4nnccc4C(C)C)C3)[nH]n2)n(C)n1 (single isomer, unassigned) [Example 411] | ≤ 100 nM
4 | COCc1cc(C(=O)Nc2cc([C@@H]3CC[C@H](Oc4nscc4C4CC4)C3)[nH]n2)n(C)n1 (single isomer, unassigned) [Example 413] | ≤ 100 nM
5 | COCc1cc(C(=O)Nc2cc([C@H]3CC[C@@H](Oc4nscc4C4CC4)C3)[nH]n2)n(C)n1 (single isomer, unassigned) [Example 414] | ≤ 100 nM
6 | COCc1cc(C(=O)Nc2cc([C@H]3CC[C@@H](Oc4ccc(C(C)C)nn4)C3)[nH]n2)n(C)n1 (single isomer, unassigned) [Example 415] | 250 to 1000 nM
7 | CC(C)NC(=O)O[C@@H]1CC[C@H](c2cc(N)n[nH]2)C1 (single isomer, unassigned) [Example 417] | 1000 to 100000 nM
8 | CC(C)NC(=O)O[C@H]1CC[C@@H](c2cc(N)n[nH]2)C1 (single isomer, unassigned) [Example 418] | 1000 to 100000 nM
9 | COCc1cc(C(=O)Nc2cc([C@H]3CC[C@@](C)(CC(=O)NC(C)C)C3)[nH]n2)n(C)n1 (single isomer, unassigned) [Example 419] | 1000 to 100000 nM
10 | COCc1cc(C(=O)Nc2cc([C@@H]3CC[C@](C)(CC(=O)NC(C)C)C3)[nH]n2)n(C)n1 (single isomer, unassigned) [Example 420] | 1000 to 100000 nM
11 | CC(=O)Nc1cc([C@H]2CC[C@@H](Oc3nscc3C3CC3)C2)[nH]n1 (single isomer, unassigned) [Example 421] | ≤ 100 nM
12 | CC(=O)Nc1cc([C@@H]2CC[C@H](Oc3nscc3C3CC3)C2)[nH]n1 (single isomer, unassigned) [Example 422] | ≤ 100 nM
13 | CC(=O)Nc1nc2ccnc(Nc3cc([C@H]4CC[C@@H](OC(=O)NC(C)C)C4)[nH]n3)c2s1 (single isomer, unassigned) [Example 423] | ≤ 100 nM
14 | CC(=O)Nc1nc2ccnc(Nc3cc(C4CC[C@H](OC(=O)NC(C)C)C4)[nH]n3)c2s1 (single isomer, unassigned) [Example 424] | ≤ 100 nM
15 | CC(=O)Nc1cc([C@H]2CC[C@@H](Oc3nnccc3C(C)C)C2)[nH]n1 (single isomer, unassigned) [Example 427] | ≤ 100 nM
16 | CC(=O)Nc1cc([C@@H]2CC[C@H](Oc3nnccc3C(C)C)C2)[nH]n1 (single isomer, unassigned) [Example 428] | ≤ 100 nM
17 | CC(C)NC(=O)O[C@@H]1CC[C@H](c2cc(NC=O)n[nH]2)C1 (single isomer, unassigned) [Example 440] | 250 to 1000 nM
18 | CC(C)NC(=O)O[C@H]1CC[C@@H](c2cc(NC=O)n[nH]2)C1 (single isomer, unassigned) [Example 441] | 250 to 1000 nM
19 | Cc1cc(CC(=O)Nc2ncc([C@H]3CC[C@@H](OC(=O)NC(C)C)C3)s2)on1 (single isomer, unassigned) [Example 442] | ≤ 100 nM
20 | Cc1cc(CC(=O)Nc2ncc([C@@H]3CC[C@H](OC(=O)NC(C)C)C3)s2)on1 (single isomer, unassigned) [Example 443] | ≤ 100 nM
21 | COCc1nc2ccnc(Nc3cc([C@H]4CC[C@@H](Oc5nnccc5C(C)C)C4)[nH]n3)c2s1 (single isomer, unassigned) [Example 444] | ≤ 100 nM
22 | COCc1nc2ccnc(Nc3cc([C@@H]4CC[C@H](Oc5nnccc5C(C)C)C4)[nH]n3)c2s1 (single isomer, unassigned) [Example 445] | ≤ 100 nM
23 | COCc1cc(C(=O)Nc2cc([C@@H]3CC[C@@](C)(CC(=O)NC(C)C)C3)[nH]n2)n(C)n1 (single isomer, unassigned) [Example 447] | 1000 to 100000 nM
24 | COCc1cc(C(=O)Nc2cc([C@H]3CC[C@](C)(CC(=O)NC(C)C)C3)[nH]n2)n(C)n1 (single isomer, unassigned) [Example 448] | 1000 to 100000 nM
25 | COCc1cc(C(=O)Nc2cc([C@@H]3CC[C@H](Oc4ccc(C(C)C)nn4)C3)[nH]n2)n(C)n1 (single isomer, unassigned) [Example 449] | 1000 to 100000 nM
26 | Cc1cc(CC(=O)Nc2cc([C@H]3CC[C@@H](OC(=O)[C@H](N)C(C)C)C3)[nH]n2)on1 (single isomer, unassigned) [Example 450] | ≤ 100 nM
27 | Cc1cc(CC(=O)Nc2cc([C@@H]3CC[C@H](OC(=O)[C@H](N)C(C)C)C3)[nH]n2)on1 (single isomer, unassigned) [Example 451] | 100 to 250 nM

Row | Compound | IC50
28 | Cc1cc(CC(=O)Nc2cc([C@H]3CC[C@@H](NC(=O)[C@H](O)C(C)C)C3)[nH]n2)on1 (single isomer, unassigned) [Example 452] | 1000 to 100000 nM
29 | Cc1cc(CC(=O)Nc2cc([C@@H]3CC[C@H](NC(=O)[C@H](O)C(C)C)C3)[nH]n2)on1 (single isomer, unassigned) [Example 453] | 1000 to 100000 nM
30 | CCOC(=O)c1cc2c(Nc3cc([C@H]4CC[C@@H](OC(=O)NC(C)C)C4)[nH]n3)nc(C)cn2n1 (single isomer, unassigned) [Example 462] | ≤ 100 nM
31 | CCOC(=O)c1cc2c(Nc3cc([C@@H]4CC[C@H](OC(=O)NC(C)C)C4)[nH]n3)nc(C)cn2n1 (single isomer, unassigned) [Example 463] | ≤ 100 nM
32 | COCc1nc2ccnc(Nc3cc([C@@H]4C[C@H](OC(=O)NC(C)C)CO4)[nH]n3)c2s1 (single isomer, unassigned) [Example 466] | ≤ 100 nM
33 | COCc1nc2ccnc(Nc3cc([C@H]4C[C@@H](OC(=O)NC(C)C)CO4)[nH]n3)c2s1 (single isomer, unassigned) [Example 467] | 100 to 250 nM
34 | Cc1cc(CC(=O)Nc2cc([C@H]3CC[C@@H](OC(=O)[C@@H](N)C(C)C)C3)[nH]n2)on1 (single isomer, unassigned) [Example 468] | 100 to 250 nM
35 | Cc1cc(CC(=O)Nc2cc([C@@H]3CC[C@H](OC(=O)[C@@H](N)C(C)C)C3)[nH]n2)on1 (single isomer, unassigned) [Example 469] | 250 to 1000 nM
36 | COCc1cc(C(=O)Nc2cc([C@H]3CC[C@@H](Oc4nnccc4C4CC4)C3)[nH]n2)n(C)n1 (single isomer, unassigned) [Example 470] | ≤ 100 nM
37 | COCc1cc(C(=O)Nc2cc([C@@H]3CC[C@H](Oc4nnccc4C4CC4)C3)[nH]n2)n(C)n1 (single isomer, unassigned) [Example 471] | ≤ 100 nM
38 | COCc1cc(C(=O)Nc2cc([C@H]3CC[C@@H](Oc4cccnc4C(C)C)C3)[nH]n2)n(C)n1 (single isomer, unassigned) [Example 472] | 100 to 250 nM
39 | COCc1cc(C(=O)Nc2cc([C@@H]3CC[C@H](Oc4cccnc4C(C)C)C3)[nH]n2)n(C)n1 (single isomer, unassigned) [Example 473] | 100 to 250 nM
40 | COCc1cc(C(=O)Nc2cc([C@H]3CC[C@@H](Oc4nnccc4-c4ccccc4)C3)[nH]n2)n(C)n1 (single isomer, unassigned) [Example 474] | 100 to 250 nM
41 | COCc1cc(C(=O)Nc2cc([C@@H]3CC[C@H](Oc4nnccc4-c4ccccc4)C3)[nH]n2)n(C)n1 (single isomer, unassigned) [Example 475] | ≤ 100 nM
42 | COCc1cc(C(=O)Nc2cc([C@H]3CC[C@@H](Oc4nnccc4C(F)(F)F)C3)[nH]n2)n(C)n1 (single isomer, unassigned) [Example 476] | ≤ 100 nM
43 | COCc1cc(C(=O)Nc2cc([C@@H]3CC[C@H](Oc4nnccc4C(F)(F)F)C3)[nH]n2)n(C)n1 (single isomer, unassigned) [Example 477] | ≤ 100 nM
44 | COCc1cc(C(=O)Nc2cc([C@@H]3CC[C@H](Oc4c(C)ccnc4C)C3)[nH]n2)n(C)n1 (single isomer, unassigned) [Example 478] | 1000 to 100000 nM
45 | COCc1cc(C(=O)Nc2cc([C@H]3CC[C@@H](Oc4c(C)ccnc4C)C3)[nH]n2)n(C)n1 (single isomer, unassigned) [Example 479] | 1000 to 100000 nM
46 | COCc1cc2c(Nc3cc([C@H]4CC[C@@H](OC(=O)NC(C)C)C4)[nH]n3)nccn2n1 (single isomer, unassigned) [Example 480] | ≤ 100 nM
47 | COCc1cc2c(Nc3cc([C@@H]4CC[C@H](OC(=O)NC(C)C)C4)[nH]n3)nccn2n1 (single isomer, unassigned) [Example 481] | ≤ 100 nM
48 | Cc1cc(CC(=O)Nc2cc([C@H]3CC[C@@H](NC(=O)[C@@H](O)C(C)C)C3)[nH]n2)on1 (single isomer, unassigned) [Example 482] | 1000 to 100000 nM
49 | Cc1cc(CC(=O)Nc2cc([C@@H]3CC[C@H](NC(=O)[C@@H](O)C(C)C)C3)[nH]n2)on1 (single isomer, unassigned) [Example 483] | 250 to 1000 nM
50 | Cc1ncccc1O[C@@H]1CC[C@H](c2cc(Nc3nccn4nccc34)n[nH]2)C1 (single isomer, unassigned) [Example 484] | 250 to 1000 nM
51 | Cc1ncccc1O[C@H]1CC[C@@H](c2cc(Nc3nccn4nccc34)n[nH]2)C1 (single isomer, unassigned) [Example 485] | ≤ 100 nM
52 | Cc1ncccc1O[C@@H]1CC[C@H](c2cc(Nc3ncnc4ncccc34)n[nH]2)C1 (single isomer, unassigned) [Example 486] | 1000 to 100000 nM
53 | Cc1ncccc1O[C@H]1CC[C@@H](c2cc(Nc3ncnc4ncccc34)n[nH]2)C1 (single isomer, unassigned) [Example 487] | ≤ 100 nM
